Experimental data taken from patent US20240140938A1, “PREPARATION OF TETRAHYDROINDAZOLE DERIVATIVES AS NOVEL DIACYLGLYCERIDE O-ACYLTRANSFERASE 2 INHIBITORS” (MERCK SHARP & DOHME LLC, priority 2020, published 2024).

Molecular target: human DGAT2 (hDGAT2) (Homo sapiens (Human), UniProt Q96PD7)
Assay: DGAT2 Enzymatic Activity Assay
Type: biochemical
Conditions: hDGAT2 Sf-9 membrane prep, 13C18-triolein product by LC/MS/MS
Procedure, shortened: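 Enzyme source was membrane fractions from Sf-9 cells infected with untagged hDGAT2 baculovirus. Reactions ran at room temperature, and product 13C18-triolein was quantified by LC/MS/MS against a 13C21-triolein internal standard. % inhibition was normalised to high and low controls, and IC50 derived from it.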

[1] = 25 μM diolein, 5 μM 13C oleoyl-CoA

human DGAT2 (hDGAT2), sequence (Q96PD7 whole entry): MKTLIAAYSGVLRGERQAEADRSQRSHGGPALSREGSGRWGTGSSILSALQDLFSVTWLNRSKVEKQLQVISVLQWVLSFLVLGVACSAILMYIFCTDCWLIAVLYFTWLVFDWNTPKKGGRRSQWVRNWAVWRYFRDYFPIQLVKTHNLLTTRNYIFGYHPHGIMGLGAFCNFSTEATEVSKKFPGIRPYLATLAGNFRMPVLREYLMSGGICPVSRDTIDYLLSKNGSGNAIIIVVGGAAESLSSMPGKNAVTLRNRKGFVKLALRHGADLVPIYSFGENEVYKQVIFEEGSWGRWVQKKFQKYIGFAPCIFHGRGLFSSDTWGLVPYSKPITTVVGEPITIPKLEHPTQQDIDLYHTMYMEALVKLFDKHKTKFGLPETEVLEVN

Row | IC50 [1] [nM] | IC50 (unit given as nm) [nM] | Structure (SMILES)
1 | 243 |  | CC(n1nc(-c2cc(OC(F)F)ccc2F)c2c1C[C@H](C(=O)NC1(C)CS(=O)(=O)C1)CC2)C(C)(C)O (single isomer, unassigned) [Example 110b]
2 | 24.3 |  | CC(C)n1nc(-c2cc(OC(F)F)ccc2F)c2c1CC(C(=O)N[C@]1(C)CCS(=O)(=O)C1)CO2 (stereo partly drawn) [Example 123, 3-(5-(difluoromethoxy)-2-fluorophenyl)-1-isopropyl-N-((R)-3-methyl-1,1-dioxidotetrahydrothiophen-3-yl)-1,5,6,7-tetrahydropyrano[3,2-c]pyrazole-6-carboxamide]
3 | 162 |  | CCOc1cc(-c2nn(C(C)C(F)(F)F)c3c2CC[C@@H](C(=O)NC2(C)CCS(=O)(=O)CC2)C3)c(F)cn1 (single isomer, unassigned) [Example 53a]
4 |  | 108 | CC1(NC(=O)[C@@H]2CCc3c(-c4cc(OC(F)F)ccc4F)nn(S(C)(=O)=O)c3C2)CS(=O)(=O)C1 [Example 115, (R)-3-(5-(difluoromethoxy)-2-fluorophenyl)-N-(3-methyl-1,1-dioxidothietan-3-yl)-1-(methylsulfonyl)-4,5,6,7-tetrahydro-1H-indazole-6-carboxamide]
5 | > 10000 |  | CC(C)n1nc(-c2cccc(C3(C#N)CC3)c2)c2c1C[C@H](C(=O)NC1(C)CS(=O)(=O)C1)CC2 [Example 91, (R)-3-(3-(1-cyanocyclopropyl)phenyl)-1-isopropyl-N-(3-methyl-1,1-dioxidothietan-3-yl)-4,5,6,7-tetrahydro-1H-indazole-6-carboxamide]
6 | > 10000 |  | CC(C)n1nc(-c2cccc(OC(F)F)c2)c2c1CC(C(=O)NC1(C)CS(=O)(=O)C1)OC2 (single isomer, unassigned) [EX-134a, 3-(3-(difluoromethoxy)phenyl)-1-isopropyl-N-(3-methyl-1,1-dioxidothietan-3-yl)-1,4,6,7-tetrahydropyrano[4,3-c]pyrazole-6-carboxamide]
7 | 43.8 |  | CC(C)n1nc(-c2cc(OC(F)F)ncc2F)c2c1C[C@H](C(=O)NC1(C)CCS(=O)(=O)CC1)CC2 [Example 21, (R)-3-(2-(difluoromethoxy)-5-fluoropyridin-4-yl)-1-isopropyl-N-(4-methyl-1,1-dioxidotetrahydro-2H-thiopyran-4-yl)-4,5,6,7-tetrahydro-1H-indazole-6-carboxamide]
8 | 18000 |  | CC(C)n1nc(-c2cccc(OC(F)F)c2)c2c1C[C@H](C(=O)NCCN1CCS(=O)(=O)CC1)CC2 [Example 70, (R)-3-(3-(difluoromethoxy)phenyl)-N-(2-(1,1-dioxidothiomorpholino)ethyl)-1-isopropyl-4,5,6,7-tetrahydro-1H-indazole-6-carboxamide]
9 | 320 |  | CC(C)n1nc(-c2cc(C3CC3)ccc2F)c2c1C[C@H](C(=O)NC1(C)CS(=O)(=O)C1)OC2 [Example 128, (R)-3-(5-cyclopropyl-2-fluorophenyl)-1-isopropyl-N-(3-methyl-1,1-dioxidothietan-3-yl)-1,4,6,7-tetrahydropyrano[4,3-c]pyrazole-6-carboxamide]
10 | 5 |  | O=C(NC1(CO)CCC(F)(F)C1)[C@@H]1CCc2c(-c3cccc(OC(F)F)c3)nn(-c3ccc(F)cn3)c2C1 (single isomer, unassigned) [Example 8a]
11 | 7260 |  | CC(C)n1nc(-c2cccc(OC(F)F)c2)c2c1C[C@H](C(=O)N[C@@H](C)CO)CC2 [Example 65, (R)-3-(3-(difluoromethoxy)phenyl)-N-((S)-1-hydroxypropan-2-yl)-1-isopropyl-4,5,6,7-tetrahydro-1H-indazole-6-carboxamide]
12 | 13.9 |  | C[C@]1(NC(=O)[C@@H]2CCc3c(-c4cncc(OC(F)F)c4)nn(-c4ccc(F)cn4)c3C2)CCS(=O)(=O)C1 [Example 14, (R)-3-(5-(difluoromethoxy)pyridin-3-yl)-1-(5-fluoropyridin-2-yl)-N-((S)-3-methyl-1,1-dioxidotetrahydrothiophen-3-yl)-4,5,6,7-tetrahydro-1H-indazole-6-carboxamide]
13 | 4560 |  | CC(C)n1nc(-c2cccc(OC(F)F)c2)c2c1C[C@H](C(=O)NCc1cnoc1)CC2 [Example 63, (R)-3-(3-(difluoromethoxy)phenyl)-1-isopropyl-N-(isoxazol-4-ylmethyl)-4,5,6,7-tetrahydro-1H-indazole-6-carboxamide]
14 | 51 |  | [2H]C([2H])([2H])C([2H])([2H])Oc1cc(-c2nn(C(C)C)c3c2CC[C@@H](C(=O)NC2(C)CCS(=O)(=O)CC2)C3)c(F)cn1 [Example 50, (R)-3-(2-(ethoxy-d5)-5-fluoropyridin-4-yl)-1-isopropyl-N-(4-methyl-1,1-dioxidotetrahydro-2H-thiopyran-4-yl)-4,5,6,7-tetrahydro-1H-indazole-6-carboxamide]
